Measurements: PMC9921301, “Design, Synthesis, and Antiproliferative Activity of New 5-Chloro-indole-2-carboxylate and Pyrrolo[3,4-b]indol-3-one Derivatives as Potent Inhibitors of EGFR^T790M/BRAF^V600E Pathways” (Molecules, 2023)
Like-named read-outs stand apart in the source and are kept apart here.

Columns and labels:
EGFR [1] = target: T1, EGFR (Homo sapiens, UniProt P00533); design: CD, amino acids 645–1186); His6 (N); made in house; host or cells: Sf-9 insect cells (baculovirus; pBlueBacHis2B / pFASTBacHTc; conditions: cited from earlier work
BRAF^V600E [2] = conditions: cited from earlier work
[3] = system: A-549 (epithelial cancer cell line); assay: Antiproliferative assay, A-549; assay type: cell-based; conditions: Homo sapiens, A549; read-out: Antiproliferative Activity IC50 ± SEM A-549
Description: (§1) For ease of manipulation, the average (GI50) versus the four cancer cell lines was used.
(§2) To investigate the antiproliferative potential of 3a–e, 4a–c, and 5a–c, the MTT assay was carried out using various cell lines in accordance with previously reported procedures. See Appendix SA (Supplementary Materials). […]
(§3) ethylenediamine tetra acetic acid (EDTA) was used to passage the cells after every 2-3 days. 96-well flat-bottomed cell culture plates were used to seed the cells at a density of 10^4 cells mL-1. The medium was aspirated from all the wells of culture plates after 24 h followed by the addition of synthesized compounds (in 200 μL medium to yield a final concentration of 0.1% (v/v) dimethylsulfoxide) into individual wells of the plates.
(§4) Four wells were designated to a single compound. The plates were allowed to incubate at 37°C for 96 h. Afterwards, the medium was aspirated and 3-[4,5-dimethylthiazol-2-yl]-2,5-diphenyltetrazolium bromide (MTT) (0.4 mg/mL) in medium was added to each well and subsequently incubated for 3 h. The medium was aspirated and 150 μL dimethyl sulfoxide (DMSO) was added to each well. The plates were vortexed followed by the measurement of absorbance at 540 nm on a microplate reader. The results were presented as inhibition (%) of proliferation in contrast to controls comprising 0.1% 4.2.1.2. Assay for antiproliferative effect
(§5) To explore the antiproliferative potential of compounds propidium iodide fluorescence assay was performed using different cell lines such as Panc-1 (pancreas cancer cell […]
(§6) (epithelial cancer cell line), respectively. To calculate the total nuclear DNA, a fluorescent dye (propidium iodide, PI) is used which can attach to the DNA, thus offering a quick and precise technique. PI cannot pass through the cell membrane and its signal intensity can be considered as directly proportional to quantity of cellular
(§7) DNA. Cells whose cell membranes are damaged or have changed permeability are counted as dead ones. The assay was performed by seeding the cells of different cell lines at a density of 3000-7500 cells/well (in200μl medium) in culture plates followed […]
(§8) The medium was removed; the compounds were added to the plates at 10 μM concentrations (in 0.1% DMSO) in triplicates, followed by incubation for 48h. DMSO (0.1%) was used as control. After incubation, medium was removed followed by the addition of PI (25 μl, 50μg/mL in water/medium) to each well of the plates. At -80 °C, the plates were allowed to freeze for 24 h, followed by thawing at 25 °C. A fluorometer (Polar-Star BMG Tech) was used to record the readings at excitation and emission wavelengths of 530 and 620 nm for each well. The percentage cytotoxicity of compounds was calculated using the following formula:
(§9) Where ATC= Absorbance of treated cells and AC= Absorbance of control. […]
(§10) was used as positive control in the assay. […]

[4] = system: Panc-1 (pancreatic cancer cell line); assay: Antiproliferative assay, Panc-1; assay type: cell-based; conditions: Homo sapiens, read-out: Antiproliferative Activity IC50 ± SEM Panc-1
Description: as §1, §2, §3, §4, §5, §6, §7, §8, §9, §10

BRAF^V600E [5] = target: T2, BRAF^V600E (Mus musculus, UniProt P28028, V585E); assay: V600E mutant BRAF kinase assay; assay type: biochemical; conditions: for IC50: read-out: BRAF^V600E Inhibition IC50 ± SEM
T2 construct: Mouse full-length GST-tagged; GST; purchased Invitrogen PV3849
Description: V600E mutant BRAF kinase assay was performed to investigate the activity of […]
Mouse full-length GST-tagged
BRAFV600E (7.5 ng, Invitrogen, PV3849) was pre -incubated with drug (1 µL) and assay dilution buffer (4 µL) for 6 0 min at 25 °C. In assay dilution buffer, a solution (5 µL) containing MgCl2 (30 mM), ATP (200 µM), recombinant human full length (200 ng) […] N-terminal His-tagged MEK1 (Invitrogen) was added to start the assay, after incubation for 25 min at 25 °C. The assay was stopped using 5X protein denaturing buffer (LDS) solution (5 µL). To further denature the protein, heat (70° C) was applied […]
electrophoresis (at 200 V). 10 µL of each reaction was loaded into the precast plates and electrophoresis was allowed to proceed. After completion of electrophoresis, the front part of the precast gel plate (holding hot ATP) was cut and afterwards cast -off.
The dried gel was developed using a phosphor screen. […]
Computerized Prism 5 program was used to statistically analyzed data using one-way ANOVA test followed by Tukey’s as post ANOVA for multiple comparison at P ≤.05.
Data were presented as mean ± SEM.

[6] = system: MCF-7 (breast cancer cell line); assay: Antiproliferative assay, MCF-7; assay type: cell-based; conditions: Homo sapiens, MCF7; read-out: Antiproliferative Activity IC50 ± SEM MCF-7
Description: as §1, §2, §3, §4, §5, §6, §7, §8, §9, §10

[7] = Cell viability assay (MTT) on normal mammary epithelial cells; assay type: cell-based; conditions: human, MCF-10A normal mammary gland epithelial cells, four days of incubation
Description: The viability test was performed on a normal human mammary gland epithelial cell line (MCF-10A). The MTT test was used to assess the viability of compounds 3a–e, 4a–c, and 5a–c.
The MTT assay was used to determine how the synthesized compounds affected the viability of mammary epithelial cells (MCF-10A). See Appendix SA (Supplementary Materials). […]
4.2. Biological evaluation
4.2.1. Cytotoxic activity using MTT Assay and evaluation of IC50
MTT assay was performed to investigate the effect of the synthesized compounds on mammary epithelial cells (MCF-10A). The cells were propagated in medium consisting of Ham's F-12 medium/ Dulbecco's modified Eagle's medium (DMEM) (1:1) supplemented with 10% foetal calf serum, 2 mM glutamine, insulin (10 μg/mL), hydrocortisone (500 ng/mL) and epidermal growth factor (20 ng/mL). Trypsin ethylenediamine tetra acetic acid (EDTA) was used to passage the cells after every 2-3 days. 96-well flat-bottomed cell culture plates were used to seed the cells at a density of 10^4 cells mL-1. The medium was aspirated from all the wells of culture plates after 24 h followed by the addition of synthesized compounds (in 200 μL medium to yield a final concentration of 0.1% (v/v) dimethylsulfoxide) into individual wells of the plates.
as §4, with “The results were presented as inhibition (%) of proliferation in contrast to controls comprising 0.1% 4.2.1.2. Assay for antiproliferative effect” left out

[8] = system: four human cancer cell lines (Panc-1, MCF-7, HT-29, A-549); assay: Antiproliferative assay, average (GI50) versus the four cancer cell lines; assay type: cell-based; conditions: for GI50: Homo sapiens, average versus the four cancer cell lines; for fold less potent than 3e (GI50): relative to 3e GI50 29 nM
Description: as §1, §2, §3, §4, §5, §6, §7, §8, §9, §10

EGFR [9] = target: T1, EGFR; assay: EGFR-TK inhibitory assay
[10] = system: HT-29 (colon cancer cell line); assay: Antiproliferative assay, HT-29; assay type: cell-based; conditions: Homo sapiens, read-out: Antiproliferative Activity IC50 ± SEM HT-29
Description: as §1, §2, §3, §4, §5, §6, §7, §8, §9, §10

T2 sequence (P28028 whole entry V585E): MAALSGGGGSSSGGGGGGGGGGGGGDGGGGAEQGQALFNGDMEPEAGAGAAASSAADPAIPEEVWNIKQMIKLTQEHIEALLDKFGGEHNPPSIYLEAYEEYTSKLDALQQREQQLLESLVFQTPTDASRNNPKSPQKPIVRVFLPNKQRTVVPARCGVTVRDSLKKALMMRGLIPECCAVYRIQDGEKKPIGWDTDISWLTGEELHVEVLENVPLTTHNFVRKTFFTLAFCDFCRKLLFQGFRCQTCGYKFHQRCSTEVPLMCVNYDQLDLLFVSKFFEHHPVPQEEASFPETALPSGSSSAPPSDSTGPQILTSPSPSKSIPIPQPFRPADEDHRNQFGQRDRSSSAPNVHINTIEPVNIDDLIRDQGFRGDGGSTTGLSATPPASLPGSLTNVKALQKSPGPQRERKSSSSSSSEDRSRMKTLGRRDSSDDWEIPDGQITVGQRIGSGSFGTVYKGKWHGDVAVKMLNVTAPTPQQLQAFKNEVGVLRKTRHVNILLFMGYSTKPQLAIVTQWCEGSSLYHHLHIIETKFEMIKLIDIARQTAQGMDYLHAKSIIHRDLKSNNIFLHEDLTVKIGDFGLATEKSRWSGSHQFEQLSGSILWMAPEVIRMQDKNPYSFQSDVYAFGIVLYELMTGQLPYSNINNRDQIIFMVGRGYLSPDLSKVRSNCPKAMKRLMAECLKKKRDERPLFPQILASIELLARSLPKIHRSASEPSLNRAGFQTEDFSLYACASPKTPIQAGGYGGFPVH
T1 sequence (P00533 669-1210): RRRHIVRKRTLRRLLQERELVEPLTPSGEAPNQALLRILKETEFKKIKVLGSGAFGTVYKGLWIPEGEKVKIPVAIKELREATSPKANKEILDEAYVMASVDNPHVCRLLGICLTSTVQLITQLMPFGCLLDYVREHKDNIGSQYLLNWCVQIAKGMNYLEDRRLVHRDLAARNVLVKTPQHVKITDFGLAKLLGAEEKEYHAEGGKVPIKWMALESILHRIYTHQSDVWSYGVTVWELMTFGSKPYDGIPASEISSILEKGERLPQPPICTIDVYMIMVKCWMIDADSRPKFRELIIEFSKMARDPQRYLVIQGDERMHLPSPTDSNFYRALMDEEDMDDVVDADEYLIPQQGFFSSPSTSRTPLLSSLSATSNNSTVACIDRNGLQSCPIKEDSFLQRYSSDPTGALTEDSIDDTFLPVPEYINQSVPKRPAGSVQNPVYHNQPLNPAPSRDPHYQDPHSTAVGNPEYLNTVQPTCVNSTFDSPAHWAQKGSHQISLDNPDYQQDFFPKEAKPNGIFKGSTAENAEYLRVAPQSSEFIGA

Compound | IC50 [3] [nM] | IC50 [4] [nM] | IC50 (BRAF^V600E [5]) [nM] | IC50 [6] [nM] | GI50 [8] [nM] | fold less potent than 3e (GI50) [8] [fold] | IC50 (EGFR [9]) [nM] | IC50 [10] [nM] | fold less potent than vemurafenib (BRAF^V600E IC50) (BRAF^V600E [5]; relative to vemurafenib IC50 = 30 nM) [fold] | IC50 (EGFR [1]) [nM] | IC50 (BRAF^V600E [2]) [nM] | viability at 96 h, 50 µM [7] [%]
O=C(NCCc1ccc(N2CCOCC2)cc1)c1[nH]c2ccc(Cl)cc2c1CO [Compound IVc] |  |  |  |  |  |  |  |  |  | 120 |  | 
Cc1c2cc(Cl)ccc2n2cc(Cc3ccccc3)[nH]c(=O)c12 [Compound V] |  |  |  |  |  |  |  |  |  |  | 100 | 
CCOC(=O)c1[nH]c2ccc(Cl)cc2c1CNCCc1ccc(N2CCCCC2)cc1 [Compound 3c, Ethyl 5-chloro-3-((4-(piperidin-1-yl)phenethylamino)methyl)-1H-indole-2-carboxylate] | 41 ± 4 | 42 ± 4 | 67 ± 6 | 45 ± 4 | 42 | 1.5 | 89 ± 6 | 44 ± 4 |  |  |  | 89
CCOCc1c2n(c3ccc(Cl)cc13)C(=O)CN(CCc1ccc(N3CCOCC3)cc1)C2=O [VII] |  |  |  |  |  |  |  |  |  | 32 | 45 | 
CCOC(=O)c1[nH]c2ccc(Cl)cc2c1CNCCc1ccccc1 [Compound 3a, Ethyl 5-chloro-3-((phenethylamino)methyl)-1H-indole-2-carboxylate] | 33 ± 3 | 36 ± 3 | 43 ± 4 | 35 ± 3 | 35 |  | 85 ± 6 | 36 ± 3 | 1.4 |  |  | 87
CCOC(=O)c1[nH]c2ccc(Cl)cc2c1CNCCc1ccc(N2CCCC2C)cc1 (stereo not shown) [Compound 3d, Ethyl 5-chloro-3-((4-(2-methylpyrrolidin-1-yl)phenethylamino)methyl)-1H-indole-2-carboxylate] | 37 ± 3 | 38 ± 3 | 54 ± 5 | 40 ± 4 | 38 | 1.3 | 82 ± 7 | 38 ± 3 |  |  |  | 90

The next lines start with results.

IC50 [3] [nM] | IC50 [4] [nM] | IC50 (BRAF^V600E [5]) [nM] | IC50 [6] [nM] | GI50 [8] [nM] | fold less potent than 3e (GI50) [8] [fold] | IC50 (EGFR [9]) [nM] | IC50 [10] [nM] | fold less potent than vemurafenib (BRAF^V600E IC50) (BRAF^V600E [5]; relative to vemurafenib IC50 = 30 nM) [fold] | Compound | IC50 (EGFR [1]) [nM] | IC50 (BRAF^V600E [2]) [nM] | viability at 96 h, 50 µM [7] [%]
58 ± 5 | 64 ± 6 |  | 61 ± 6 | 62 |  |  | 66 ± 6 |  | O=C1c2[nH]c3ccc(Cl)cc3c2CN1CCc1ccc(N2CCCC2)cc1 [Compound 5b, 7-Chloro-2-(4-(pyrrolidin-1-yl)phenethyl)-1,2-dihydropyrrolo [3,4-b]indol-3(4H)-one] |  |  | 89
65 ± 6 | 68 ± 6 |  | 69 ± 6 | 68 |  |  | 68 ± 6 |  | O=C(O)c1[nH]c2ccc(Cl)cc2c1CNCCc1ccc(N2CCCC2)cc1 [Compound 4b, 5-Chloro-3-((4-(pyrrolidin-1-yl)phenethylamino)methyl)-1H-indole-2-carboxylic acid] |  |  | 89
69 ± 7 | 72 ± 7 |  | 73 ± 7 | 72 |  |  | 75 ± 7 |  | O=C(O)c1[nH]c2ccc(Cl)cc2c1CNCCc1ccc(N2CCCCC2)cc1 [Compound 4c, 5-Chloro-3-((4-(piperidin-1-yl)phenethylamino)methyl)-1H-indole-2-carboxylic acid] |  |  | 87
46 ± 4 | 50 ± 5 |  | 48 ± 5 | 48 |  |  | 49 ± 5 |  | O=C1c2[nH]c3ccc(Cl)cc3c2CN1CCc1ccccc1 [Compound 5a, 7-Chloro-2-phenethyl-1,2-dihydropyrrolo [3,4-b]indol-3(4H)-one] |  |  | 89
51 ± 5 | 55 ± 5 |  | 53 ± 5 | 54 |  |  | 57 ± 5 |  | O=C1c2[nH]c3ccc(Cl)cc3c2CN1CCc1ccc(N2CCCCC2)cc1 [Compound 5c, 7-Chloro-2-(4-(piperidin-1-yl)phenethyl)-1,2-dihydropyrrolo [3,4-b]indol-3(4H)-one] |  |  | 91
75 ± 7 | 78 ± 7 |  | 79 ± 7 | 78 |  |  | 78 ± 7 |  | O=C(O)c1[nH]c2ccc(Cl)cc2c1CNCCc1ccccc1 [Compound 4a, 5-Chloro-3-((phenethylamino)methyl)-1H-indole-2-carboxylic acid] |  |  | 91
